Here are results for 24 molecules from PMC6150240, “Synthesis and 2D-QSAR Study of Active Benzofuran-Based Vasodilators” (Molecules : A Journal of Synthetic Chemistry and Natural …, 2017).

For data set [1], the system named is isolated thoracic aortic rings of male Wistar rats. Put plainly: Vasodilation activity screening: isolated thoracic aortic rings pre-contracted with norepinephrine hydrochloride. The note with it: Rattus norvegicus. The method, then:
The vasodilation activity screening procedures were carried out according to the standard reported techniques by testing the effects of the synthesized 2-alkoxy-4-aryl-6-(benzofuran-2-yl)-3-pyridinecarbonitriles 4a–x on isolated thoracic aortic rings of male Wistar rats (250–350 g). After light ether anesthesia, the rats were sacrificed by cervical dislocation. The aortae were immediately excised, freed of extraneous tissues and prepared for isometric tension recording. Aorta was cut into (3–5 mm width) rings and each ring was placed in a vertical chamber “10 mL jacketed automatic multi-chamber organ bath system (Model no. ML870B6/C, Panlab, Spain)” filled with Krebs solution composed of (in mM): NaCl, 118.0; KCl, 4.7; NaHCO3, 25.0; CaCl2, 1.8; NaH2PO4, 1.2; MgSO4, 1.2; glucose, 11.0 and oxygenated with carbogen gas (95% O2/5% CO2) at 37 ± 0.5 °C. Each aortic ring was mounted between two stainless steel hooks passed through its lumen. The lower hook was fixed between two plates, while the upper one was attached to a force displacement transducer (Model no. MLT0201, Panlab, Spain) connected to an amplifier (PowerLab, AD Instruments Pty., Ltd. Victoria, Australia), which is connected to a computer. The chart for Windows (v 3.4) software was used to record and elaborate data. Preparations were stabilized under 2 g resting tension during 2 h and then the contracture response to norepinephrine hydrochloride (10^−6 M) was measured before and after exposure to increasing concentrations of the tested synthesized compounds. The tested compounds were dissolved in dimethylsulfoxide (DMSO) as stock solution (10 mL of 0.005 M). […] This experiment was carried out in according to recommendations in the Guide for the Care and Use of Laboratory Animals of the National Institutes of Health (NIH publication No. 85–23, revised 1996) and under regulations of the Animal Care and Use of National Research Centre in Egypt.

[2] abbreviates: norepinephrine hydrochloride 10^−6 M, three replicates, read-out: Potency (IC50), concentration necessary for 50% reduction of maximal norepinephrine hydrochloride induced contracture.
Where [3] appears, read: norepinephrine hydrochloride induced contracture, observed values as used in the QSAR, read-out: Observed IC50.

pIC50: −log10 of the molar value. Read-outs that look alike come from different tables or passages of the source.

For the molecule `COc1nc(-c2ccccc2)cc(-c2cn(-c3ccccc3)nc2-c2cc3ccccc3o2)c1C#N` [Compound 4a, 4-(3-(Benzofuran-2-yl)-1-phenyl-1H-pyrazol-4-yl)-2-methoxy-6-phenylpyridine-3-carbonitrile], the pIC50 in data set [1] (setting [2]) and in data set [1] (setting [3]) was 3.55 each time.

In the case of `CCOc1nc(-c2ccccc2)cc(-c2cn(-c3ccccc3)nc2-c2cc3ccccc3o2)c1C#N` [Compound 4b, 4-(3-(Benzofuran-2-yl)-1-phenyl-1H-pyrazol-4-yl)-2-ethoxy-6-phenylpyridine-3-carbonitrile], the melting point is 186 to 188 °C. For the same molecule, the pIC50 in data set [1] (setting [2]) is 3.46. Besides, the pIC50 in data set [1] (setting [3]) was 3.46.

As to `COc1nc(-c2ccc(Cl)cc2)cc(-c2cn(-c3ccccc3)nc2-c2cc3ccccc3o2)c1C#N` [Compound 4c, 4-(3-(Benzofuran-2-yl)-1-phenyl-1H-pyrazol-4-yl)-6-(4-chlorophenyl)-2-methoxypyridine-3-carbonitrile], the pIC50 in data set [1] (setting [2]) and in data set [1] (setting [3]) was 3.53 throughout.

Take `CCOc1nc(-c2ccc(Cl)cc2)cc(-c2cn(-c3ccccc3)nc2-c2cc3ccccc3o2)c1C#N` [Compound 4d, 4-(3-(Benzofuran-2-yl)-1-phenyl-1H-pyrazol-4-yl)-6-(4-chlorophenyl)-2-ethoxypyridine-3-carbonitrile]: the melting point lay in the range of 199 to 201 °C. Besides, the pIC50 in data set [1] (setting [2]) is 3.40. Further, the pIC50 in data set [1] (setting [3]) was 3.40.

Regarding `COc1nc(-c2ccc(Br)cc2)cc(-c2cn(-c3ccccc3)nc2-c2cc3ccccc3o2)c1C#N` [Compound 4e, 4-(3-(Benzofuran-2-yl)-1-phenyl-1H-pyrazol-4-yl)-6-(4-bromophenyl)-2-methoxypyridine-3-carbonitrile], the pIC50 in data set [1] (setting [2]) and in data set [1] (setting [3]) was 3.60 in each case.

For `CCOc1nc(-c2ccc(Br)cc2)cc(-c2cn(-c3ccccc3)nc2-c2cc3ccccc3o2)c1C#N` [Compound 4f, 4-(3-(Benzofuran-2-yl)-1-phenyl-1H-pyrazol-4-yl)-6-(4-bromophenyl)-2-ethoxypyridine-3-carbonitrile], the pIC50 in data set [1] (setting [2]) and in data set [1] (setting [3]) was 3.57 in each case.

Take `COc1nc(-c2ccc(F)cc2)cc(-c2cn(-c3ccccc3)nc2-c2cc3ccccc3o2)c1C#N` [Compound 4g, 4-(3-(benzofuran-2-yl)-1-phenyl-1H-pyrazol-4-yl)-6-(4-fluorophenyl)-2-methoxypyridine-3-carbonitrile]: the pIC50 in data set [1] (setting [2]) and in data set [1] (setting [3]) was 3.56 in each case.

The molecule `CCOc1nc(-c2ccc(F)cc2)cc(-c2cn(-c3ccccc3)nc2-c2cc3ccccc3o2)c1C#N` [Compound 4h, 4-(3-(Benzofuran-2-yl)-1-phenyl-1H-pyrazol-4-yl)-2-ethoxy-6-(4-fluorophenyl)pyridine-3-carbonitrile] had a melting point of 204 to 206 °C. For the same molecule, the pIC50 in data set [1] (setting [2]) was 3.48. For the same molecule, the pIC50 in data set [1] (setting [3]) was 3.48.

`COc1nc(-c2ccc(C)cc2)cc(-c2cn(-c3ccccc3)nc2-c2cc3ccccc3o2)c1C#N` [Compound 4i, 4-(3-(Benzofuran-2-yl)-1-phenyl-1H-pyrazol-4-yl)-2-methoxy-6-p-tolylpyridine-3-carbonitrile] had a melting point of 258 to 260 °C. Further, in data set [1] (setting [2]), the pIC50 was 3.48. Moreover, in data set [1] (setting [3]), the pIC50 is 3.48.

Take `CCOc1nc(-c2ccc(C)cc2)cc(-c2cn(-c3ccccc3)nc2-c2cc3ccccc3o2)c1C#N` [Compound 4j, 4-(3-(Benzofuran-2-yl)-1-phenyl-1H-pyrazol-4-yl)-2-ethoxy-6-p-tolylpyridine-3-carbonitrile]: the melting point was in the range of 202 to 204 °C. Also, the pIC50 in data set [1] (setting [2]) was 3.34. Moreover, the pIC50 in data set [1] (setting [3]) was 3.34.

`COc1ccc(-c2cc(-c3cn(-c4ccccc4)nc3-c3cc4ccccc4o3)c(C#N)c(OC)n2)cc1` [Compound 4k, 4-(3-(Benzofuran-2-yl)-1-phenyl-1H-pyrazol-4-yl)-2-methoxy-6-(4-methoxyphenyl)pyridine-3-carbonitrile] yielded a melting point of 256 to 258 °C. Further, in data set [1] (setting [2]), the pIC50 was 3.37. Besides, the pIC50 in data set [1] (setting [3]) is 3.49.

On to `CCOc1nc(-c2ccc(OC)cc2)cc(-c2cn(-c3ccccc3)nc2-c2cc3ccccc3o2)c1C#N` [Compound 4l, 4-(3-(Benzofuran-2-yl)-1-phenyl-1H-pyrazol-4-yl)-2-ethoxy-6-(4-methoxyphenyl)pyridine-3-carbonitrile], for which the pIC50 in data set [1] (setting [2]) and in data set [1] (setting [3]) was 3.54 throughout.

On to `COc1nc(-c2ccc3c(c2)CCCC3)cc(-c2cn(-c3ccccc3)nc2-c2cc3ccccc3o2)c1C#N` [Compound 4m, 4-(3-(Benzofuran-2-yl)-1-phenyl-1H-pyrazol-4-yl)-6-(1,2,3,4-tetrahydronaphthalen-6-yl)-2-methoxypyridine-3-carbonitrile], for which the pIC50 in data set [1] (setting [2]) and in data set [1] (setting [3]) was 3.54 throughout.

In turn, `CCOc1nc(-c2ccc3c(c2)CCCC3)cc(-c2cn(-c3ccccc3)nc2-c2cc3ccccc3o2)c1C#N` [Compound 4n, 4-(3-(Benzofuran-2-yl)-1-phenyl-1H-pyrazol-4-yl)-2-ethoxy-6-(1,2,3,4-tetrahydronaphthalen-6-yl)pyridine-3-carbonitrile] yielded a melting point of 213 to 215 °C. Moreover, the pIC50 in data set [1] (setting [2]) was 3.47. For the same molecule, the pIC50 in data set [1] (setting [3]) is 3.47.

Take `COc1nc(-c2ccc[nH]2)cc(-c2cn(-c3ccccc3)nc2-c2cc3ccccc3o2)c1C#N` [Compound 4o, 4-(3-(Benzofuran-2-yl)-1-phenyl-1H-pyrazol-4-yl)-2-methoxy-6-(1H-pyrrol-2-yl)pyridine-3-carbonitrile]: the melting point was in the range of 187 to 189 °C. In data set [1] (setting [2]), the pIC50 was 3.45.

Regarding `CCOc1nc(-c2ccc[nH]2)cc(-c2cn(-c3ccccc3)nc2-c2cc3ccccc3o2)c1C#N` [Compound 4p, 4-(3-(Benzofuran-2-yl)-1-phenyl-1H-pyrazol-4-yl)-2-ethoxy-6-(1H-pyrrol-2-yl)pyridine-3-carbonitrile], the melting point fell in the range of 208 to 210 °C. In data set [1] (setting [2]), the pIC50 is 3.40. In addition, the pIC50 in data set [1] (setting [3]) was 3.53.

Molecule `COc1nc(-c2ccco2)cc(-c2cn(-c3ccccc3)nc2-c2cc3ccccc3o2)c1C#N` [Compound 4q, 4-(3-(Benzofuran-2-yl)-1-phenyl-1H-pyrazol-4-yl)-6-(furan-2-yl)-2-methoxypyridine-3-carbonitrile] showed a melting point of 246 to 248 °C. Also, the pIC50 in data set [1] (setting [2]) was 3.49. For the same molecule, in data set [1] (setting [3]), the pIC50 is 3.49.

On to `CCOc1nc(-c2ccco2)cc(-c2cn(-c3ccccc3)nc2-c2cc3ccccc3o2)c1C#N` [Compound 4r, 4-(3-(Benzofuran-2-yl)-1-phenyl-1H-pyrazol-4-yl)-2-ethoxy-6-(furan-2-yl)pyridine-3-carbonitrile], for which the pIC50 in data set [1] (setting [2]) and in data set [1] (setting [3]) was 3.60 each time.

Regarding `COc1nc(-c2cccs2)cc(-c2cn(-c3ccccc3)nc2-c2cc3ccccc3o2)c1C#N` [Compound 4s, 4-(3-(Benzofuran-2-yl)-1-phenyl-1H-pyrazol-4-yl)-2-methoxy-6-(thiophen-2-yl)pyridine-3-carbonitrile], the pIC50 in data set [1] (setting [2]) was 3.57.

`CCOc1nc(-c2cccs2)cc(-c2cn(-c3ccccc3)nc2-c2cc3ccccc3o2)c1C#N` [Compound 4t, 4-(3-(Benzofuran-2-yl)-1-phenyl-1H-pyrazol-4-yl)-2-ethoxy-6-(thiophen-2-yl)pyridine-3-carbonitrile]: the pIC50 in data set [1] (setting [2]) is 3.53; in data set [1] (setting [3]) it was 3.40.

On to `COc1nc(-c2ccccn2)cc(-c2cn(-c3ccccc3)nc2-c2cc3ccccc3o2)c1C#N` [Compound 4u, 4-(3-(Benzofuran-2-yl)-1-phenyl-1H-pyrazol-4-yl)-2-methoxy-6-(pyridin-2-yl)pyridine-3-carbonitrile], for which the melting point lay within 275 to 277 °C. In data set [1] (setting [2]), the pIC50 is 3.48. For the same molecule, in data set [1] (setting [3]), the pIC50 is 3.48.

`CCOc1nc(-c2ccccn2)cc(-c2cn(-c3ccccc3)nc2-c2cc3ccccc3o2)c1C#N` [Compound 4v, 4-(3-(Benzofuran-2-yl)-1-phenyl-1H-pyrazol-4-yl)-2-ethoxy-6-(pyridin-2-yl)pyridine-3-carbonitrile]: the melting point lay within 204 to 206 °C. Also, the pIC50 in data set [1] (setting [2]) is 3.43. In addition, the pIC50 in data set [1] (setting [3]) is 3.43.

For the molecule `COc1nc(-c2nc3ccccc3n2C)cc(-c2cn(-c3ccccc3)nc2-c2cc3ccccc3o2)c1C#N` [Compound 4w, 4-(3-(Benzofuran-2-yl)-1-phenyl-1H-pyrazol-4-yl)-2-methoxy-6-(1-methyl-1H-benzo[d]imidazole-2-yl)pyridine-3-carbonitrile], the pIC50 in data set [1] (setting [2]) and in data set [1] (setting [3]) was 3.65 throughout.

Consider `CCOc1nc(-c2nc3ccccc3n2C)cc(-c2cn(-c3ccccc3)nc2-c2cc3ccccc3o2)c1C#N` [Compound 4x, 4-(3-(Benzofuran-2-yl)-1-phenyl-1H-pyrazol-4-yl)-2-ethoxy-6-(1-methyl-1H-benzo[d]-imidazol-2-yl)pyridine-3-carbonitrile], for which the pIC50 in data set [1] (setting [2]) and in data set [1] (setting [3]) was 3.52 throughout.

One may read the melting point as the temperature of the solid-liquid transition.
